# Non-standard residues stand in square brackets, D forms with d. Residues, ends and D or L forms follow the SMILES beside them. *: point of attachment. Sta = CC(C)C[C@H](N)[C@@H](O)CC(=O)O; 3Amb = NCc1cccc(C(=O)O)c1; Nle = CCCC[C@H](N)C(=O)O; Nva = CCC[C@H](N)C(=O)O; X1 = O=C(C1CCCCO1)*
# Target: Beta-secretase 1 (Homo sapiens, UniProt P56817)
# Test: Inhibition of human beta-secretase
# Chain of Beta-secretase 1 (P56817 whole entry): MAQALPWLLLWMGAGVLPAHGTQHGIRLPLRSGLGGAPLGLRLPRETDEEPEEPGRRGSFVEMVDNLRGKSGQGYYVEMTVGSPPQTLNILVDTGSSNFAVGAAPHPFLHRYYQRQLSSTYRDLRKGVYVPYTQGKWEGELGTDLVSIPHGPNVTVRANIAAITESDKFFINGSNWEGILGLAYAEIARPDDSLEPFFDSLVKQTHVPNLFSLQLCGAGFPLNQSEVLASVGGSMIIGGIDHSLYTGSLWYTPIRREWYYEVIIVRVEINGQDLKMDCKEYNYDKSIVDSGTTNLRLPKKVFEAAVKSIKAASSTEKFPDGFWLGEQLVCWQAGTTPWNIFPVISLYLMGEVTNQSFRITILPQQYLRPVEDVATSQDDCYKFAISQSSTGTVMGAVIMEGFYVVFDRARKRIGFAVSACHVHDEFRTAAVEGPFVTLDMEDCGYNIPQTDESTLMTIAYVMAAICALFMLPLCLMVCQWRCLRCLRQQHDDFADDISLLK
row,IC50,SMILES
1,520 nM,CC(=O)N[C@@H](CC(C)C)C(=O)N[C@@H](C)C(=O)N[C@@H](CC(C)C)[C@@H](O)CC(=O)N[C@H](C(=O)NCc1cccc(C(=O)O)c1)C(C)C
2,250 nM,CC[C@H](C)[C@H](NC(C)=O)C(=O)N[C@@H](C)C(=O)N[C@@H](CC(C)C)[C@@H](O)CC(=O)N[C@@H](Cc1ccccc1)C(=O)NCc1cccc(C(=O)O)c1 (Ac-IA[Sta]F[3Amb]-OH)
3,260 nM,CC[C@H](C)[C@H](NC(C)=O)C(=O)N[C@@H](C)C(=O)N[C@@H](CC(C)C)[C@@H](O)CC(=O)N[C@@H](CC(C)C)C(=O)NCc1cccc(C(=O)O)c1 (Ac-IA[Sta]L[3Amb]-OH)
4,220 nM,CC[C@H](C)[C@H](NC(=O)C[C@H](O)[C@H](CC(C)C)NC(=O)[C@H](CCSC)NC(=O)[C@@H](NC(=O)[C@@H](N)CCC(=O)O)C(C)C)C(=O)N[C@@H](C)C(=O)N[C@@H](CCC(=O)O)C(=O)N[C@@H](Cc1ccccc1)C(=O)O (H-EVM[Sta]IAEF-OH)
5,> 91000 nM,CSCC[C@H](NC(=O)[C@H](CC(C)C)NC(C)=O)C(=O)N[C@@H](CC(C)C)[C@@H](O)CC(=O)N[C@@H](C(=O)NCc1cccc(C(=O)O)c1)C(C)C
6,110 nM,CC(C)C[C@H](NC(=O)[C@H](CC(N)=O)NC(=O)[C@@H](NC(=O)[C@@H](N)CCC(=O)O)C(C)C)[C@@H](O)CC(=O)N[C@H](C(=O)N[C@@H](C)C(=O)N[C@@H](CCC(=O)O)C(N)=O)C(C)C (H-EVN[Sta]VAE-NH2)
7,> 91000 nM,CC(C)C[C@H](NC(=O)[C@H](CC(N)=O)NC(=O)[C@@H](NC(=O)[C@@H](N)CCC(=O)O)C(C)C)[C@@H](O)CC(N)=O (H-EVN[Sta]-NH2)
8,250 nM,CC[C@H](C)[C@H](NC(C)=O)C(=O)N[C@@H](C)C(=O)N[C@@H](CC(C)C)[C@@H](O)CC(=O)N[C@H](C(=O)NCc1cccc(C(=O)O)c1)C(C)C
9,140 nM,CSCC[C@H](NC(=O)[C@@H](NC(=O)[C@@H](N)CCC(=O)O)C(C)C)C(=O)N[C@@H](CC(C)C)[C@@H](O)CC(=O)N[C@@H](CC(C)C)C(=O)N[C@@H](C)C(=O)N[C@@H](CCC(=O)O)C(=O)N[C@@H](Cc1ccccc1)C(=O)O (H-EVM[Sta]LAEF-OH)
10,91 nM,CC[C@H](C)[C@H](NC(C)=O)C(=O)N[C@@H](CCSC)C(=O)N[C@@H](CC(C)C)[C@@H](O)CC(=O)N[C@@H](Cc1ccc(O)cc1)C(=O)NCc1cccc(C(=O)O)c1 (Ac-IM[Sta]Y[3Amb]-OH)
11,530 nM,CC(C)C[C@H](NC(=O)[C@H](CC(N)=O)NC(=O)[C@@H](NC(=O)[C@@H](N)CCC(=O)O)C(C)C)[C@@H](O)CC(=O)N[C@H](C(=O)N[C@@H](C)C(N)=O)C(C)C (H-EVN[Sta]VA-NH2)
12,86 nM,CCCC[C@H](NC(=O)C[C@H](O)[C@H](CC(C)C)NC(=O)[C@H](CCSC)NC(=O)[C@@H](NC(C)=O)[C@@H](C)CC)C(=O)NCc1cccc(C(=O)O)c1 (Ac-IM[Sta][Nle][3Amb]-OH)
13,> 91000 nM,CC[C@@H](C)[C@@H](NC(C)=O)C(=O)N[C@@H](C)C(=O)N[C@@H](CC(C)C)[C@@H](O)CC(=O)N[C@H](C(=O)NCc1cccc(C(=O)O)c1)C(C)C
14,1400 nM,CCCC[C@H](NC(C)=O)C(=O)N[C@@H](C)C(=O)N[C@@H](CC(C)C)[C@@H](O)CC(=O)N[C@H](C(=O)NCc1cccc(C(=O)O)c1)C(C)C (Ac-[Nle]A[Sta]V[3Amb]-OH)
15,2000 nM,CC(C)C[C@H](NC(=O)[C@H](CC(N)=O)NC(=O)[C@@H](N)C(C)C)[C@@H](O)CC(=O)N[C@H](C(=O)N[C@@H](C)C(=O)N[C@@H](CCC(=O)O)C(=O)N[C@@H](Cc1ccccc1)C(=O)O)C(C)C (H-VN[Sta]VAEF-OH)
16,> 91000 nM,CSCC[C@@H](NC(=O)[C@H](CC(C)C)NC(C)=O)C(=O)N[C@@H](CC(C)C)[C@@H](O)CC(=O)N[C@H](C(=O)NCc1cccc(C(=O)O)c1)C(C)C
17,69 nM,CC[C@H](C)[C@H](NC(=O)C1CCCCO1)C(=O)N[C@@H](C)C(=O)N[C@@H](CC(C)C)[C@@H](O)CC(=O)N[C@H](C(=O)NCc1cccc(C(=O)O)c1)C(C)C (stereo not given in full) (X1-IA[Sta]V[3Amb]-OH)
18,890 nM,CSCC[C@H](NC(=O)[C@H](CC(C)C)NC(C)=O)C(=O)N[C@@H](CC(C)C)[C@@H](O)CC(=O)N[C@H](C(=O)NCc1cccc(C(=O)O)c1)C(C)C
19,> 91000 nM,CC(=O)N[C@@H](CC(C)C)C(=O)N[C@H](C)C(=O)N[C@@H](CC(C)C)[C@@H](O)CC(=O)N[C@H](C(=O)NCc1cccc(C(=O)O)c1)C(C)C
20,830 nM,CCC[C@H](NC(C)=O)C(=O)N[C@@H](C)C(=O)N[C@@H](CC(C)C)[C@@H](O)CC(=O)N[C@H](C(=O)NCc1cccc(C(=O)O)c1)C(C)C (Ac-[Nva]A[Sta]V[3Amb]-OH)
21,180 nM,CCCC[C@H](NC(=O)C[C@H](O)[C@H](CC(C)C)NC(=O)[C@H](C)NC(=O)[C@@H](NC(C)=O)[C@@H](C)CC)C(=O)NCc1cccc(C(=O)O)c1 (Ac-IA[Sta][Nle][3Amb]-OH)
22,140 nM,CC[C@H](C)[C@H](NC(C)=O)C(=O)N[C@@H](CCSC)C(=O)N[C@@H](CC(C)C)[C@@H](O)CC(=O)N[C@@H](Cc1ccccc1)C(=O)NCc1cccc(C(=O)O)c1 (Ac-IM[Sta]F[3Amb]-OH)
23,> 91000 nM,CC(C)C[C@H](NC(=O)[C@@H](N)CC(N)=O)[C@@H](O)CC(=O)N[C@H](C(=O)N[C@@H](C)C(=O)N[C@@H](CCC(=O)O)C(=O)N[C@@H](Cc1ccccc1)C(=O)O)C(C)C (H-N[Sta]VAEF-OH)
24,110 nM,CC(C)C[C@H](NC(=O)[C@H](C)NC(=O)[C@@H](NC(=O)[C@@H](N)CCC(=O)O)C(C)C)[C@@H](O)CC(=O)N[C@H](C(=O)N[C@@H](C)C(=O)N[C@@H](CCC(=O)O)C(=O)N[C@@H](Cc1ccccc1)C(=O)O)C(C)C (H-EVA[Sta]VAEF-OH)
25,46 nM,CC(C)C[C@H](NC(=O)[C@H](CC(N)=O)NC(=O)[C@@H](NC(=O)[C@@H](N)CCC(=O)O)C(C)C)[C@@H](O)CC(=O)N[C@H](C(=O)N[C@@H](C)C(=O)N[C@@H](CCC(=O)O)C(=O)N[C@@H](Cc1ccccc1)C(=O)O)C(C)C (H-EVN[Sta]VAEF-OH)
26,110 nM,CC[C@H](C)[C@H](NC(C)=O)C(=O)N[C@@H](C)C(=O)N[C@@H](CC(C)C)[C@@H](O)CC(=O)N[C@@H](Cc1ccc(O)cc1)C(=O)NCc1cccc(C(=O)O)c1 (Ac-IA[Sta]Y[3Amb]-OH)
27,9400 nM,CC(C)C[C@H](NC(=O)[C@H](CC(N)=O)NC(=O)[C@@H](NC(=O)[C@@H](N)CCC(=O)O)C(C)C)[C@@H](O)CC(=O)N[C@H](C(N)=O)C(C)C (H-EVN[Sta]V-NH2)
28,3800 nM,CC(=O)N[C@H](C(=O)N[C@@H](C)C(=O)N[C@@H](CC(C)C)[C@@H](O)CC(=O)N[C@H](C(=O)NCc1cccc(C(=O)O)c1)C(C)C)C(C)C (Ac-VA[Sta]V[3Amb]-OH)
29,58 nM,CSCC[C@H](NC(=O)[C@@H](NC(=O)[C@@H](N)CCC(=O)O)C(C)C)C(=O)N[C@@H](CC(C)C)[C@@H](O)CC(=O)N[C@H](C(=O)N[C@@H](C)C(=O)N[C@@H](CCC(=O)O)C(=O)N[C@@H](Cc1ccccc1)C(=O)O)C(C)C (H-EVM[Sta]VAEF-OH)
30,130 nM,CCC[C@H](NC(=O)C[C@H](O)[C@H](CC(C)C)NC(=O)[C@H](CCSC)NC(=O)[C@@H](NC(C)=O)[C@@H](C)CC)C(=O)NCc1cccc(C(=O)O)c1 (Ac-IM[Sta][Nva][3Amb]-OH)
